# Patent EP4810052A2, “HCRHR2 SELECTIVE POLYPEPTIDES” (Gubra A/S, priority 2023, dated 2026)
# Where two headings read alike, the source gives them in different places. Starred links: 1 amine or outer side, 2 acyl side, 3 side chain; linkers in the order of their positions; H or OH if unused. Non-standard residues stand in square brackets, D forms with d. Residues, ends and D or L forms follow the SMILES beside them. Groups on a side chain read outwards from the residue. *: point of attachment. C20 diacid = O=C(O)CCCCCCCCCCCCCCCCCCC(=O)*; Pro(cis-4-F) = O=C(O)[C@@H]1C[C@H](F)CN1; γGlu = O=C(O)[C@H](CCC(=O)[*:2])N[*:1]; Nle = CCCC[C@H](N)C(=O)O; Ac5c = NC1(C(=O)O)CCCC1; AEEA = NCCOCCOCC(=O)O
# Columns and labels:
# [1] = target: T1, hCRHR2 (Homo sapiens, UniProt Q13324); experiment: HTRF cAMP assay, determination of hCRHR2 potency (peptide libraries 5 conc., purified peptides 11 conc.); format: cell-based
# T1 sequence (Q13324 1-411): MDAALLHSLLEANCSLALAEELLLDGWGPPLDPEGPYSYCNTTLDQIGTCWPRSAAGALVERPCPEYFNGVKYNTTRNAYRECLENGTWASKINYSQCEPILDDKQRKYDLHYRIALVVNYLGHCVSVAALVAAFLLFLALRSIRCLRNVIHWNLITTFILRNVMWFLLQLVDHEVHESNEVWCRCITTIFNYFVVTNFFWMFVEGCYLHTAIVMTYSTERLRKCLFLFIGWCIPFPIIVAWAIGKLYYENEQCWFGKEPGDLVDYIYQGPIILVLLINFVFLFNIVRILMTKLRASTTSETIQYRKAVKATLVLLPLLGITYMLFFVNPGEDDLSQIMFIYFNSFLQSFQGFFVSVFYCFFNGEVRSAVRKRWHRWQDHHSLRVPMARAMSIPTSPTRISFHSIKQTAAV
# Procedure, shortened: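 CHO-K1 cells stably expressing human CRHR2, thawed from frozen stocks just before use and run in suspension; cAMP measured by competitive HTRF immunoassay (cryptate anti-cAMP, d2-cAMP). Agonist peptides tested at 5 (libraries) or 11 (purified) concentrations; EC50 from sigmoid variable-slope nonlinear regression.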
# [2] = target: T2, hCRHR1 (Homo sapiens, UniProt P34998); experiment: HTRF cAMP assay, determination of hCRHR1 potency (peptide libraries 5 conc., purified peptides 11 conc.); format: cell-based
# T2 sequence (P34998 24-415): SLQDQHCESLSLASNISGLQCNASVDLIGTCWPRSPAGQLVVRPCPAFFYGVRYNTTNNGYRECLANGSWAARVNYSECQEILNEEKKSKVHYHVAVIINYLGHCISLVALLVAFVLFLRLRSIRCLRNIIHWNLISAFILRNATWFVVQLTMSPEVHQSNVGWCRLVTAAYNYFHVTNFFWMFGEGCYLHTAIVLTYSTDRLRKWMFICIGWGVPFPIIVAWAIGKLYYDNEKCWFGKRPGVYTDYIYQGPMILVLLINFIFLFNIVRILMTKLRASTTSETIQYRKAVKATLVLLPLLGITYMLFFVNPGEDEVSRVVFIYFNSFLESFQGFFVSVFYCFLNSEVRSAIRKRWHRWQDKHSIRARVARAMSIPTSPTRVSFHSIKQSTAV
# Procedure, shortened: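 CHO-K1 cells stably expressing human CRHR1, thawed from frozen stocks just before use, were stimulated in suspension with agonist peptides. cAMP was measured by HTRF competitive immunoassay (cryptate anti-cAMP antibody vs d2-cAMP).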
# [3] = library peptides, matched molecular pairs L vs Nle in position X^38, read-out: Potency hCRHR2 pEC50 (converted)
# [4] = library peptides, matched molecular pairs L vs Nle in position X^38, read-out: Potency hCRHR1 pEC50 (converted)
# [5] = Table 3, matched molecular pairs X^38 L vs Nle, peptide library of Example 4, read-out: hCRHR2 pEC50 (converted)
# [6] = Table 3, matched molecular pairs X^38 L vs Nle, peptide library of Example 4, read-out: hCRHR1 pEC50 (converted)
SMILES,"EC50 [1, 3] [nM]","EC50 [2, 4] [nM]","EC50 [1, 5] [nM]","EC50 [2, 6] [nM]",other results
CCCC[C@H](NC(=O)[C@@H](NC(=O)[C@H](CCC(=O)O)NC(=O)[C@H](C)NC(=O)[C@H](CC(N)=O)NC(=O)[C@@H](NC(=O)[C@H](CCCCNC(=O)COCCOCCNC(=O)COCCOCCNC(=O)CC[C@H](NC(=O)CC[C@H](NC(=O)CCCCCCCCCCCCCCCCCCC(=O)O)C(=O)O)C(=O)O)NC(=O)[C@H](C)NC(=O)[C@H](CCC(N)=O)NC(=O)[C@H](CCC(=O)O)NC(=O)[C@H](CCCNC(=N)N)NC(=O)[C@H](C)NC(=O)[C@H](C)NC(=O)[C@H](CCCNC(=N)N)NC(=O)[C@H](C)NC(=O)[C@H](CCCNC(=N)N)NC(=O)[C@H](C)NC(=O)[C@H](CCC(N)=O)NC(=O)[C@H](CCC(=O)O)NC(=O)[C@H](CC(C)C)NC(=O)[C@H](CC(C)C)NC(=O)[C@@H](NC(=O)[C@H](CCC(N)=O)NC(=O)[C@H](CC(C)C)NC(=O)[C@H](CC(C)C)NC(=O)CNC(=O)[C@@H](NC(=O)[C@@H]1C[C@H](F)CN1C(=O)C1(NC(=O)[C@H](CC(=O)O)NC(=O)[C@H](CC(C)C)NC(=O)[C@H](CO)NC(=O)[C@H](CC(C)C)NC(=O)[C@@H](NC(=O)[C@@H](N)[C@@H](C)CC)C(C)C)CCCC1)[C@@H](C)CC)[C@@H](C)CC)[C@@H](C)O)[C@@H](C)CC)C(=O)N[C@@H](C)C(=O)N[C@@H](CCC(=O)O)C(=O)N[C@H](C(N)=O)C(C)C [compound 87] (H-IVLSLD[Ac5c][Pro(cis-4-F)]IGLLQILLEQARARAAREQAK([AEEA-AEEA-γGlu-γGlu-C20 diacid])TNAEI[Nle]AEV-NH2),0.316,2.51,,,
CC[C@H](C)[C@H](N)C(=O)N[C@H](C(=O)N[C@@H](CC(C)C)C(=O)N[C@@H](CO)C(=O)N[C@@H](CC(C)C)C(=O)N[C@@H](CC(=O)O)C(=O)N[C@H](C(=O)N1CCC[C@H]1C(=O)N[C@H](C(=O)NCC(=O)N[C@@H](CC(C)C)C(=O)N[C@@H](CC(C)C)C(=O)N[C@@H](CCC(N)=O)C(=O)N[C@H](C(=O)N[C@@H](CC(C)C)C(=O)N[C@@H](CC(C)C)C(=O)N[C@@H](CCC(=O)O)C(=O)N[C@@H](CCC(N)=O)C(=O)N[C@@H](C)C(=O)N[C@@H](CCCNC(=N)N)C(=O)N[C@@H](C)C(=O)N[C@@H](CCCNC(=N)N)C(=O)N[C@@H](C)C(=O)N[C@@H](CC(C)C)C(=O)N[C@@H](CCCNC(=N)N)C(=O)N[C@@H](CCC(=O)O)C(=O)N[C@@H](CCC(N)=O)C(=O)N[C@@H](C)C(=O)N[C@@H](CCCCNC(=O)COCCOCCNC(=O)COCCOCCNC(=O)CC[C@H](NC(=O)CC[C@H](NC(=O)CCCCCCCCCCCCCCCCCCC(=O)O)C(=O)O)C(=O)O)C(=O)N[C@H](C(=O)N[C@@H](CC(N)=O)C(=O)N[C@@H](C)C(=O)N[C@@H](CCC(=O)O)C(=O)N[C@H](C(=O)N[C@@H](CC(C)C)C(=O)N[C@@H](C)C(=O)N[C@@H](CCC(=O)O)C(=O)N[C@H](C(N)=O)C(C)C)[C@@H](C)CC)[C@@H](C)O)[C@@H](C)CC)[C@@H](C)CC)C(C)C)C(C)C [SEQ ID NO: 39] (H-IVLSLDVPIGLLQILLEQARARALREQAK([AEEA-AEEA-γGlu-γGlu-C20 diacid])TNAEILAEV-NH2),,,0.501,794,
CCCC[C@H](NC(=O)[C@@H](NC(=O)[C@H](CCC(=O)O)NC(=O)[C@H](C)NC(=O)[C@H](CC(N)=O)NC(=O)[C@@H](NC(=O)[C@H](CCCCNC(=O)COCCOCCNC(=O)COCCOCCNC(=O)CC[C@H](NC(=O)CC[C@H](NC(=O)CCCCCCCCCCCCCCCCCCC(=O)O)C(=O)O)C(=O)O)NC(=O)[C@H](C)NC(=O)[C@H](CCC(N)=O)NC(=O)[C@H](CCC(=O)O)NC(=O)[C@H](CCCNC(=N)N)NC(=O)[C@H](C)NC(=O)[C@H](CCC(N)=O)NC(=O)[C@H](CCCNC(=N)N)NC(=O)[C@H](C)NC(=O)[C@H](CCCNC(=N)N)NC(=O)[C@H](C)NC(=O)[C@H](CCC(N)=O)NC(=O)[C@H](CCC(=O)O)NC(=O)[C@H](CC(C)C)NC(=O)[C@H](CC(C)C)NC(=O)[C@@H](NC(=O)[C@H](CCC(N)=O)NC(=O)[C@H](CC(C)C)NC(=O)[C@H](CC(C)C)NC(=O)CNC(=O)[C@@H](NC(=O)[C@@H]1CCCN1C(=O)[C@@H](NC(=O)[C@H](CC(=O)O)NC(=O)[C@H](CC(C)C)NC(=O)[C@H](CO)NC(=O)[C@H](CC(C)C)NC(=O)[C@@H](NC(=O)[C@@H](N)[C@@H](C)CC)C(C)C)C(C)C)[C@@H](C)CC)[C@@H](C)CC)[C@@H](C)O)[C@@H](C)CC)C(=O)N[C@@H](C)C(=O)N[C@@H](CCC(=O)O)C(=O)N[C@H](C(N)=O)[C@@H](C)CC [SEQ ID NO: 30] (H-IVLSLDVPIGLLQILLEQARARQAREQAK([AEEA-AEEA-γGlu-γGlu-C20 diacid])TNAEI[Nle]AEI-NH2),,,0.126,1580,
CC[C@H](C)[C@H](N)C(=O)N[C@H](C(=O)N[C@@H](CC(C)C)C(=O)N[C@@H](CO)C(=O)N[C@@H](CC(C)C)C(=O)N[C@@H](CC(=O)O)C(=O)N[C@H](C(=O)N1CCC[C@H]1C(=O)N[C@H](C(=O)NCC(=O)N[C@@H](CC(C)C)C(=O)N[C@@H](CC(C)C)C(=O)N[C@@H](CCC(N)=O)C(=O)N[C@H](C(=O)N[C@@H](CC(C)C)C(=O)N[C@@H](CC(C)C)C(=O)N[C@@H](CCC(=O)O)C(=O)N[C@@H](CCC(N)=O)C(=O)N[C@@H](C)C(=O)N[C@@H](CCCNC(=N)N)C(=O)N[C@@H](C)C(=O)N[C@@H](CCCNC(=N)N)C(=O)N[C@@H](C)C(=O)N[C@@H](C)C(=O)N[C@@H](CCCNC(=N)N)C(=O)N[C@@H](CCC(=O)O)C(=O)N[C@@H](CCC(=O)O)C(=O)N[C@@H](C)C(=O)N[C@@H](CCCCNC(=O)COCCOCCNC(=O)COCCOCCNC(=O)CC[C@H](NC(=O)CC[C@H](NC(=O)CCCCCCCCCCCCCCCCCCC(=O)O)C(=O)O)C(=O)O)C(=O)N[C@H](C(=O)N[C@@H](CC(N)=O)C(=O)N[C@@H](C)C(=O)N[C@@H](CCC(=O)O)C(=O)N[C@H](C(=O)N[C@@H](CC(C)C)C(=O)N[C@@H](C)C(=O)N[C@@H](CCC(=O)O)C(=O)N[C@H](C(N)=O)[C@@H](C)CC)[C@@H](C)CC)[C@@H](C)O)[C@@H](C)CC)[C@@H](C)CC)C(C)C)C(C)C [compound 74] (H-IVLSLDVPIGLLQILLEQARARAAREEAK([AEEA-AEEA-γGlu-γGlu-C20 diacid])TNAEILAEI-NH2),2,158000,,,
CCCC[C@H](NC(=O)[C@@H](NC(=O)[C@H](CCC(=O)O)NC(=O)[C@H](C)NC(=O)[C@H](CC(N)=O)NC(=O)[C@@H](NC(=O)[C@H](CCCCNC(=O)COCCOCCNC(=O)COCCOCCNC(=O)CC[C@H](NC(=O)CC[C@H](NC(=O)CCCCCCCCCCCCCCCCCCC(=O)O)C(=O)O)C(=O)O)NC(=O)[C@H](C)NC(=O)[C@H](CCCNC(=N)N)NC(=O)[C@H](CCC(=O)O)NC(=O)[C@H](CCCNC(=N)N)NC(=O)[C@H](C)NC(=O)[C@H](C)NC(=O)[C@H](CCCNC(=N)N)NC(=O)[C@H](C)NC(=O)[C@H](CCCNC(=N)N)NC(=O)[C@H](C)NC(=O)[C@H](CCC(N)=O)NC(=O)[C@H](CCC(=O)O)NC(=O)[C@H](CC(C)C)NC(=O)[C@H](CC(C)C)NC(=O)[C@@H](NC(=O)[C@H](CCC(N)=O)NC(=O)[C@H](CC(C)C)NC(=O)[C@H](CC(C)C)NC(=O)CNC(=O)[C@@H](NC(=O)[C@@H]1CCCN1C(=O)[C@@H](NC(=O)[C@H](CC(=O)O)NC(=O)[C@H](CC(C)C)NC(=O)[C@H](CO)NC(=O)[C@H](CC(C)C)NC(=O)[C@@H](NC(=O)[C@@H](N)[C@@H](C)CC)C(C)C)C(C)C)[C@@H](C)CC)[C@@H](C)CC)[C@@H](C)O)[C@@H](C)CC)C(=O)N[C@@H](C)C(=O)N[C@@H](CCC(=O)O)C(=O)N[C@H](C(N)=O)C(C)C [compound 67] (H-IVLSLDVPIGLLQILLEQARARAARERAK([AEEA-AEEA-γGlu-γGlu-C20 diacid])TNAEI[Nle]AEV-NH2),,,,,EC50 [1]: 0.126 nM; EC50 [2]: 2000 nM
